We go through seven molecules from ChEMBL document CHEMBL1649456 (Antimicrob Agents Chemother, 2009).

Data set [1] relates to Coxiella burnetii. In words: Antimicrobial activity against compound-susceptible Coxiella burnetii isolate CP4 obtained from patient with acute Q fever infected in african green monkey Vero cells after 24 hrs by shell vial assay. Type of data set: functional. Particulars: isolate CP4, 24 h.
The subject of data set [2] is Coxiella burnetii. Briefly: Antimicrobial activity against compound-susceptible Coxiella burnetii isolate CP3 obtained from patient with acute Q fever infected in african green monkey Vero cells after 24 hrs by shell vial assay. Type of data set: functional. Conditions: isolate CP3, 24 h.
In data set [3] the test system is Coxiella burnetii. In words: Antimicrobial activity against compound-intermediate susceptible Coxiella burnetii Q212 obtained from patient with acute Q fever infected in african green monkey Vero cells after 24 hrs by shell vial assay. It counts as functional. Conditions: Q212, 24 h.
In data set [4] the test system is Coxiella burnetii. In words: Antimicrobial activity against compound-susceptible Coxiella burnetii isolate CP8 obtained from patient with acute Q fever infected in african green monkey Vero cells after 24 hrs by shell vial assay. Conditions: isolate CP8, 24 h. It counts as functional.
In data set [5] the test system is Coxiella burnetii. Briefly: Antimicrobial activity against compound-susceptible Coxiella burnetii Nine-Mile obtained from patient with acute Q fever infected in african green monkey Vero cells after 24 hrs by shell vial assay. Type of data set: functional.
Data set [6] deals with Coxiella burnetii. In words: Antimicrobial activity against compound-susceptible Coxiella burnetii isolate CP1 obtained from patient with acute Q fever infected in african green monkey Vero cells after 24 hrs by shell vial assay. It counts as functional. Particulars: isolate CP1, 24 h.
Data set [7] concerns Coxiella burnetii. Briefly: Antimicrobial activity against compound-susceptible Coxiella burnetii isolate CP6 obtained from patient with acute Q fever infected in african green monkey Vero cells after 24 hrs by shell vial assay. It counts as functional. Conditions: isolate CP6, 24 h.
Data set [8] relates to Coxiella burnetii. Briefly: Antimicrobial activity against compound-susceptible Coxiella burnetii Q212 obtained from patient with acute Q fever infected in african green monkey Vero cells after 24 hrs by shell vial assay. It counts as functional. Particulars: Q212, 24 h.
The test system of data set [9] is Coxiella burnetii. Briefly: Antimicrobial activity against compound-susceptible Coxiella burnetii isolate CP7 obtained from patient with acute Q fever infected in african green monkey Vero cells after 24 hrs by shell vial assay. Type of data set: functional. Conditions: isolate CP7, 24 h.
The test system of data set [10] is Coxiella burnetii. Briefly: Antimicrobial activity against compound-susceptible Coxiella burnetii isolate CP5 obtained from patient with acute Q fever infected in african green monkey Vero cells after 24 hrs by shell vial assay. Type of data set: functional. Particulars: isolate CP5, 24 h.
For data set [11], the system named is Coxiella burnetii. In words: Antimicrobial activity against compound-intermediate susceptible Coxiella burnetii isolate CP1 obtained from patient with acute Q fever infected in african green monkey Vero cells after 24 hrs by shell vial assay. Type of data set: functional. Particulars: isolate CP1, 24 h.
In data set [12] the test system is Coxiella burnetii. In words: Antimicrobial activity against compound-susceptible Coxiella burnetii isolate CP2 obtained from patient with acute Q fever infected in african green monkey Vero cells after 24 hrs by shell vial assay. Type of data set: functional. Particulars: isolate CP2, 24 h.
Data set [13] deals with Coxiella burnetii. In words: Antimicrobial activity against compound-intermediate susceptible Coxiella burnetii isolate CP4 obtained from patient with acute Q fever infected in african green monkey Vero cells after 24 hrs by shell vial assay. It counts as functional. Particulars: isolate CP4, 24 h.
A further data set relates to Vero. In words: Cytotoxicity against african green monkey Vero cells at 4 ug/ml. Type of data set: cell-based. Particulars: chlorocebus sabaeus.

≈ marks a conversion by molar mass, not a printed value.

For `CC(=O)NC[C@H]1CN(c2ccc(N3CCOCC3)c(F)c2)C(=O)O1` [LINEZOLID], the MIC against Coxiella burnetii [1] is 2 µg/mL (≈ 5.93 µM); against Coxiella burnetii [2], 2 µg/mL (≈ 5.93 µM); against Coxiella burnetii [3], 2 µg/mL (≈ 5.93 µM); against Coxiella burnetii [4] it was 2 µg/mL (≈ 5.93 µM); against Coxiella burnetii [5], 2 µg/mL (≈ 5.93 µM); in the data set with Coxiella burnetii [6], 4 µg/mL (≈ 11.9 µM). Besides, the MIC stood at 2 µg/mL (≈ 5.93 µM) with Coxiella burnetii [7]; 4 µg/mL (≈ 11.9 µM) in the data set on Coxiella burnetii [8]; 2 µg/mL (≈ 5.93 µM) against Coxiella burnetii [9]; 2 µg/mL (≈ 5.93 µM) in the data set with Coxiella burnetii [10]; 2 µg/mL (≈ 5.93 µM) against Coxiella burnetii [11]; 2 µg/mL (≈ 5.93 µM) in the data set on Coxiella burnetii [12].

On to `C[C@H]1c2cccc(O)c2C(=O)C2=C(O)[C@]3(O)C(=O)C(C(N)=O)=C(O)[C@@H](N(C)C)[C@@H]3[C@@H](O)[C@@H]21.O` [DOXYCYCLINE], for which the MIC with Coxiella burnetii [1] was 2 µg/mL; in the data set on Coxiella burnetii [2], 1 µg/mL; in the data set on Coxiella burnetii [3], 1 µg/mL; against Coxiella burnetii [4], 1 µg/mL; in the data set on Coxiella burnetii [5], 1 µg/mL; against Coxiella burnetii [6], 2 µg/mL. The MIC in the data set on Coxiella burnetii [7] was found to be 1 µg/mL; with Coxiella burnetii [8] it was 2 µg/mL; in the data set with Coxiella burnetii [9], 1 µg/mL; with Coxiella burnetii [10] it was 1 µg/mL; with Coxiella burnetii [13], 1 µg/mL; in the data set on Coxiella burnetii [11], 1 µg/mL. The molecule also gave an MIC in the data set on Coxiella burnetii [12] of 1 µg/mL.

As to `N[C@@H]1[C@H]2CN(c3nc4c(cc3F)c(=O)c(C(=O)O)cn4-c3ccc(F)cc3F)C[C@@H]12` [TROVAFLOXACIN], the MIC came to 1 µg/mL (≈ 2.4 µM) against Coxiella burnetii [1]; 1 µg/mL (≈ 2.4 µM) with Coxiella burnetii [2]; 1 µg/mL (≈ 2.4 µM) in the data set with Coxiella burnetii [3]; 1 µg/mL (≈ 2.4 µM) with Coxiella burnetii [4]; 1 µg/mL (≈ 2.4 µM) in the data set with Coxiella burnetii [5]; 2 µg/mL (≈ 4.8 µM) with Coxiella burnetii [6]. The MIC turned out to be 1 µg/mL (≈ 2.4 µM) with Coxiella burnetii [7]; 2 µg/mL (≈ 4.8 µM) in the data set with Coxiella burnetii [8]; 1 µg/mL (≈ 2.4 µM) in the data set on Coxiella burnetii [9]; 1 µg/mL (≈ 2.4 µM) with Coxiella burnetii [10]; 1 µg/mL (≈ 2.4 µM) against Coxiella burnetii [11]; 1 µg/mL (≈ 2.4 µM) with Coxiella burnetii [12].

For `CN(C)c1cc(NC(=O)CNC(C)(C)C)c(O)c2c1C[C@H]1C[C@H]3[C@H](N(C)C)C(O)=C(C(N)=O)C(=O)[C@@]3(O)C(O)=C1C2=O` [TIGECYCLINE], the MIC in the data set on Coxiella burnetii [1] is 0.25 µg/mL (≈ 0.427 µM); against Coxiella burnetii [2], 0.25 µg/mL (≈ 0.427 µM); in the data set on Coxiella burnetii [3], 0.25 µg/mL (≈ 0.427 µM); against Coxiella burnetii [4] it was 0.25 µg/mL (≈ 0.427 µM); with Coxiella burnetii [5], 0.25 µg/mL (≈ 0.427 µM); in the data set with Coxiella burnetii [6], 0.5 µg/mL (≈ 0.854 µM). Also, the MIC came to 0.25 µg/mL (≈ 0.427 µM) against Coxiella burnetii [7]; 0.5 µg/mL (≈ 0.854 µM) against Coxiella burnetii [8]; 0.25 µg/mL (≈ 0.427 µM) with Coxiella burnetii [9]; 0.25 µg/mL (≈ 0.427 µM) against Coxiella burnetii [10]; 0.25 µg/mL (≈ 0.427 µM) with Coxiella burnetii [11]; 0.25 µg/mL (≈ 0.427 µM) against Coxiella burnetii [12]. In addition, the Activity result in the data set with Vero is “Non-toxic”.

As to `O=C(O)c1cn(C2CC2)c2cc(N3CCNCC3)c(F)cc2c1=O` [CIPROFLOXACIN], the MIC in the data set with Coxiella burnetii [1], in the data set with Coxiella burnetii [2], against Coxiella burnetii [3], against Coxiella burnetii [4], against Coxiella burnetii [5] and in the data set with Coxiella burnetii [7] was 4 µg/mL (≈ 12.1 µM) throughout. For the same molecule, the MIC with Coxiella burnetii [9], in the data set with Coxiella burnetii [10], with Coxiella burnetii [11] and against Coxiella burnetii [12] was 4 µg/mL (≈ 12.1 µM) in each case.

As to `CC1COc2c(N3CCN(C)CC3)c(F)cc3c(=O)c(C(=O)O)cn1c23` (centres undefined) [OFLOXACIN], the MIC against Coxiella burnetii [1] stood at 1 µg/mL (≈ 2.77 µM); with Coxiella burnetii [2], 1 µg/mL (≈ 2.77 µM); against Coxiella burnetii [3], 1 µg/mL (≈ 2.77 µM); against Coxiella burnetii [4] it was 1 µg/mL (≈ 2.77 µM); against Coxiella burnetii [5], 1 µg/mL (≈ 2.77 µM); in the data set on Coxiella burnetii [6], 2 µg/mL (≈ 5.53 µM). For the same molecule, the minimal inhibitory concentration (MIC) against Coxiella burnetii [7] was 1 µg/mL (≈ 2.77 µM); with Coxiella burnetii [8] it was 2 µg/mL (≈ 5.53 µM); against Coxiella burnetii [9] it was 1 µg/mL (≈ 2.77 µM); against Coxiella burnetii [10] it was 1 µg/mL (≈ 2.77 µM); in the data set with Coxiella burnetii [11] it was 1 µg/mL (≈ 2.77 µM); in the data set with Coxiella burnetii [12] it was 1 µg/mL (≈ 2.77 µM).

Take `CC[C@H]1OC(=O)[C@H](C)[C@@H](O[C@H]2C[C@@](C)(OC)[C@@H](O)[C@H](C)O2)[C@H](C)[C@@H](O[C@@H]2O[C@H](C)C[C@H](N(C)C)[C@H]2O)[C@](C)(OC)C[C@@H](C)C(=O)[C@H](C)[C@@H](O)[C@]1(C)O` [CLARITHROMYCIN]: the MIC amounted to 2 µg/mL (≈ 2.67 µM) with Coxiella burnetii [1]; 2 µg/mL (≈ 2.67 µM) against Coxiella burnetii [2]; 2 µg/mL (≈ 2.67 µM) with Coxiella burnetii [3]; 2 µg/mL (≈ 2.67 µM) against Coxiella burnetii [4]; 2 µg/mL (≈ 2.67 µM) in the data set on Coxiella burnetii [5]; 4 µg/mL (≈ 5.35 µM) in the data set with Coxiella burnetii [6]. Besides, the MIC in the data set on Coxiella burnetii [7] was 2 µg/mL (≈ 2.67 µM); against Coxiella burnetii [8], 4 µg/mL (≈ 5.35 µM); in the data set with Coxiella burnetii [9], 2 µg/mL (≈ 2.67 µM); in the data set with Coxiella burnetii [10], 2 µg/mL (≈ 2.67 µM); in the data set on Coxiella burnetii [11] it was 2 µg/mL (≈ 2.67 µM); against Coxiella burnetii [12], 2 µg/mL (≈ 2.67 µM).

One may read the MIC as the lowest concentration that inhibits growth of the organism.
